Where a name gives a salt, the structure may show the parent alone.
Legend:
[1] = Arterio-Venous shunt model; format: in vivo, rat; conditions: during infusion reducing thrombus weight to approximately 20% of control
Procedure: The left jugular vein and right carotid artery are cannulated with 20 cm lengths of polyethylene PE 60 tubing. A 6 cm center section of larger tubing (PE 190) with a cotton thread (5 cm) in the lumen, is friction fitted between the longer sections to complete the arterio-venous shunt circuit. Blood circulated through the shunt for 15 minutes before the thread is carefully removed and weighed. The weight of a wet thread is subtracted from the total weight of the thread and thrombus (see J. R. Smith, Br. J. Pharmacol., 77,29 (1982)).
Assays are done in duplicate and averaged.

Human Plasma [2] = assay: Human plasma anticoagulation, thrombin time (TT); format: biochemical; conditions: concentration required to double the clotting time
Summary of the method: (§1)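 Test compounds are added to human plasma at many concentrations. Clotting is then initiated by reagent (Thromboplastin-C for PT; Actin for 120 s followed by 0.02M calcium chloride for APTT; 10 NIH units/mL bovine thrombin for TT) and timed instrumentally. The concentration giving twofold prolongation is derived by linear extrapolation.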

[3] = Simoons et al., Circulation, 90, I-231 (1994); cited from earlier work
Human plasmin = biological target: T1, Human plasmin (Homo sapiens, UniProt P00747); assay: Kass, plasmin chromogenic substrate assay; format: biochemical; conditions: substrate H-D-Val-Leu-Lys-p-nitroanilide
T1 construct: Human plasmin is purchased from Boehringer Mannheim; purchased Boehringer Mannheim, Indianapolis, Ind
T1 sequence (P00747 581-810 limits assumed): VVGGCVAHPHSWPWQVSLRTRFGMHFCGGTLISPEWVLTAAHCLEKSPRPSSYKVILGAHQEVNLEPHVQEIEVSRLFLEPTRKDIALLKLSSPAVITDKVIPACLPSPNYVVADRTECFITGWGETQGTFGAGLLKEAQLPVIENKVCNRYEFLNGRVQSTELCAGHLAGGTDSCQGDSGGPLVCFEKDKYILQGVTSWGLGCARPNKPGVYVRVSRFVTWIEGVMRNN
T1 sequence (P00747 97-580 partner limits assumed): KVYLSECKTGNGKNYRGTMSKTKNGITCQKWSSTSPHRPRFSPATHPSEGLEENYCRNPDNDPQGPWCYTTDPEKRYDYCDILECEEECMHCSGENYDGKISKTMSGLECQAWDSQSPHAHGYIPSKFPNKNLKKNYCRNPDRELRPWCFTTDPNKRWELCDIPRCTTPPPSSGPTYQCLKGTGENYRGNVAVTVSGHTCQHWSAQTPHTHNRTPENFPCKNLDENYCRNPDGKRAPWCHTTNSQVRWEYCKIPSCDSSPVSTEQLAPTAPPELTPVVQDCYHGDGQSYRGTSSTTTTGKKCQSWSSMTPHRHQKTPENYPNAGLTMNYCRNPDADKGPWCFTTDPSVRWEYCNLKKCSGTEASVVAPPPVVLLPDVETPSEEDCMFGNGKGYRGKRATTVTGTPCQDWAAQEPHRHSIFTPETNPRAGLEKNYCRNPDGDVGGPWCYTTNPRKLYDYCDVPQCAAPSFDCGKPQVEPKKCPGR

[4] = Index of bioavailability (% relative activity from plasma TT, oral vs i.v.); format: in vivo, rat; conditions: AUC of plasma TT time course, p.o. vs i.v. bolus, dose adjusted
Procedure: Parke Davis) at 37° C. […] Assays are done in duplicate and averaged. […] Each sample population represented alternating sequential time points.

Bovine trypsin = biological target: T2, Bovine trypsin (Bos taurus, UniProt P00760); assay: Kass, trypsin chromogenic substrate assay; format: biochemical; conditions: substrate N-Benzoyl-Phe-Val-Arg-p-nitroanilide
T2 construct: Bovine trypsin is purchased from Worthington Biochemicals; purchased Worthington Biochemicals, Freehold, N.J
T2 sequence (P00760 24-246): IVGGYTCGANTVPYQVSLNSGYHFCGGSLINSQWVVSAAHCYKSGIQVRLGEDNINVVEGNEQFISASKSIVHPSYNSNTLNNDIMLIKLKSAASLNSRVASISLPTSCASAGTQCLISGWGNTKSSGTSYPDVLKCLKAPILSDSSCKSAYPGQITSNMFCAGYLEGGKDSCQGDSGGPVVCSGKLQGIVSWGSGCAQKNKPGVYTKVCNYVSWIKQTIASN

factor Xa = biological target: T3, factor Xa (Homo sapiens, UniProt P00742); assay: Kass, factor Xa chromogenic substrate assay; format: biochemical; conditions: substrate N-Benzoyl-Ile-Glu-Gly-Arg-p-nitroanilide
T3 construct: Human factors X, Xa, IXa, XIa, and XIIa are purchased; purchased Enzyme Research Laboratories, South Bend, Ind
T3 sequence (P00742 235-488 limits assumed): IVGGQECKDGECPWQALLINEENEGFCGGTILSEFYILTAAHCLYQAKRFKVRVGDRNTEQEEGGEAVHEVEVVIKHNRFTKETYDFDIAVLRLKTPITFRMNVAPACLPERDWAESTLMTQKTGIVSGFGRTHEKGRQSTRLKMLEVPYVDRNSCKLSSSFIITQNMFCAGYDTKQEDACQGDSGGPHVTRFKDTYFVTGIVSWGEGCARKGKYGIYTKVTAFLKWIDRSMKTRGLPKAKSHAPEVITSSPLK
T3 sequence (P00742 41-179 partner limits assumed): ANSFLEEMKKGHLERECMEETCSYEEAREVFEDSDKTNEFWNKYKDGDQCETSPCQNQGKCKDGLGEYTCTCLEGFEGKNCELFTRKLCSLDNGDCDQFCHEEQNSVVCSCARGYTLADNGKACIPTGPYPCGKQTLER

Human Plasma [5] = assay: Human plasma anticoagulation, activated partial thromboplastin time (APTT); format: biochemical; conditions: concentration required to double the clotting time
Summary of the method: as §1

Human Plasma [6] = assay: Human plasma anticoagulation, prothrombin time (PT); format: biochemical; conditions: concentration required to double the clotting time
Summary of the method: as §1

t-PA = biological target: T4, t-PA (Homo sapiens, UniProt P00750); assay: Kass, t-PA chromogenic substrate assay; format: biochemical; conditions: substrate H-D-Ile-Pro-Arg-p-nitroanilide
T4 construct: purchased American Diagnostica, Greenwich, Conn
T4 sequence (P00750 36-562): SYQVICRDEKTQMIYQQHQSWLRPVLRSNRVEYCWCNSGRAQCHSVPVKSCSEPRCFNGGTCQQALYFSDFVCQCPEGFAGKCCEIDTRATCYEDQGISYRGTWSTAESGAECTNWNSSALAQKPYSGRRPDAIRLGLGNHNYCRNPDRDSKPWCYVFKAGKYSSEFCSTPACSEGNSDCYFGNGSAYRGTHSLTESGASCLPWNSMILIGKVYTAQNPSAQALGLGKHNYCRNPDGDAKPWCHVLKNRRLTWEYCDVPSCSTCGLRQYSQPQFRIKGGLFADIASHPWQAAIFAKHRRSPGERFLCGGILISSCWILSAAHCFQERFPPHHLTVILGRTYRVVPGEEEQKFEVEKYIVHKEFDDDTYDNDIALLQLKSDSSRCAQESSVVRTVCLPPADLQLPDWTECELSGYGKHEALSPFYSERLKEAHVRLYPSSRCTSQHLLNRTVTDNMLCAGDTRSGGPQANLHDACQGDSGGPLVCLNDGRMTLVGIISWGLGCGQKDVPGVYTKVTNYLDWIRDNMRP

Human Thrombin = Human Thrombin (Homo sapiens, UniProt P00734); assay: Inhibition of the amidase activity of thrombin (Kass); format: biochemical; conditions: chromogenic substrate N-benzoyl-Phe-Val-Arg-p-nitroanilide; mean over range of concentrations

| Compound | Kass × 10^6 (L/mole) Plasmin (Human plasmin) | Kass × 10^6 (L/mole) Trypsin (Bovine trypsin) | Kass × 10^6 (L/mole) Xa (factor Xa) | Kass × 10^6 (L/mole) t-PA (t-PA) | Kass × 10^6 (L/mole) Human Thrombin (Human Thrombin) | PTT extended [1] | Human Plasma Anticoagulation 2x Clotting time TT (Human Plasma [2]) | anticoagulant in man [3] | % oral/i.v. activity (Rat) [4] | Human Plasma Anticoagulation 2x Clotting time APTT (Human Plasma [5]) | Human Plasma Anticoagulation 2x Clotting time PT (Human Plasma [6]) |
| --- | --- | --- | --- | --- | --- | --- | --- | --- | --- | --- | --- |
| Cl.N=C(N)c1ccc(CNC(=O)[C@@H]2CCCN2C(=O)[C@@H](CC2CCCCC2)NCC(=O)O)cc1 [Example 48, HOOCCH2 -D-Cha-Pro-p-NHCH2 C6 H4 C(NH)NH2.HCl] |  |  |  |  |  | about 120 % of control | 2. ng/mL |  |  |  |  |
| CN[C@H](Cc1ccccc1)C(=O)N1CCC[C@H]1C(=O)N[C@H](C=O)CCCNC(=N)N.O=S(=O)(O)O [D-MePhe-Pro-Arg-H sulfate] |  |  |  |  |  |  |  | is an anticoagulant in man |  |  |  |
| Cl.Cl.Cl.N=C(N)c1ccc(CNC(=O)[C@@H]2C[C@@H]3CCCC[C@@H]3N2C(=O)[C@H]2CCCCN2)cc1 (relative stereo) [Example 20, D-hPro-Ohi-p-NHCH2 C6 H4 C(NH)NH2.3HCl] | 0.10 × 10^6 L/mole | 19 × 10^6 L/mole | 0.10 × 10^6 L/mole | 0.0077 × 10^6 L/mole | 10 × 10^6 L/mole |  | 62 ng/mL |  | 23% | 550 ng/mL | 600 ng/mL |
| Cl.O=C(O)CN[C@H](CC1CCCCC1)C(=O)N1CCC[C@H]1C(=O)NCCCC1=CCNCC1 [Example 60, HO2 CCH2 -D-Cha-Pro-4-NHCH2 CH2 CH2 -3,4-dehydro-piperidine.HCl] | < 0.001 × 10^6 L/mole | 0.03 × 10^6 L/mole | < 0.001 × 10^6 L/mole | < 0.001 × 10^6 L/mole | 0.24 × 10^6 L/mole |  | 3,200 ng/mL |  |  | 22,200 ng/mL | 77,700 ng/mL |
| CCS(=O)(=O)N[C@H](Cc1ccccc1)C(=O)N1CCC[C@H]1C(=O)NCc1ccc(NC(=N)N)cc1 [Example 34, EtSO2 -D-Phe-Pro-p-NHCH2 C6 H4 NHC(NH)NH2.HCl] | 0.01 × 10^6 L/mole | 0.49 × 10^6 L/mole | < 0.001 × 10^6 L/mole | 0.01 × 10^6 L/mole | 0.65 × 10^6 L/mole |  | 530 ng/mL |  |  | 4,900 ng/mL | 5,500 ng/mL |
| CCS(=O)(=O)N[C@H](Cc1ccccc1)C(=O)N1CCC[C@H]1C(=O)NCc1cccc(NC(=N)N)c1 [Example 36, EtSO2 -D-Phe-Pro-m-NHCH2 C6 H4 NHC(NH)NH2.HCl] | < 0.001 × 10^6 L/mole | 0.01 × 10^6 L/mole | < 0.001 × 10^6 L/mole | < 0.001 × 10^6 L/mole | 0.06 × 10^6 L/mole |  | 7,700 ng/mL |  |  | > 91,000 ng/mL | > 91,000 ng/mL |
| CCS(=O)(=O)N[C@H](Cc1ccccc1)C(=O)N1CCC[C@H]1C(=O)NCCCCN=C(N)N.Cl [Example 1, EtSO2 -D-Phe-Pro-Agm.HCl] |  |  |  |  |  |  |  |  | 8% |  |  |

Second part, led by results:

| Kass × 10^6 (L/mole) Plasmin (Human plasmin) | Kass × 10^6 (L/mole) Trypsin (Bovine trypsin) | Kass × 10^6 (L/mole) Xa (factor Xa) | Kass × 10^6 (L/mole) t-PA (t-PA) | Kass × 10^6 (L/mole) Human Thrombin (Human Thrombin) | Compound | PTT extended [1] | Human Plasma Anticoagulation 2x Clotting time TT (Human Plasma [2]) | anticoagulant in man [3] | % oral/i.v. activity (Rat) [4] | Human Plasma Anticoagulation 2x Clotting time APTT (Human Plasma [5]) | Human Plasma Anticoagulation 2x Clotting time PT (Human Plasma [6]) |
| --- | --- | --- | --- | --- | --- | --- | --- | --- | --- | --- | --- |
| 0.18 × 10^6 L/mole | 82. × 10^6 L/mole | 0.04 × 10^6 L/mole | 0.01 × 10^6 L/mole | 45 × 10^6 L/mole | N=C(N)c1ccc(CNC(=O)[C@@H]2C[C@@H]3CCCC[C@@H]3N2C(=O)[C@@H](Cc2ccccc2)NCC(=O)O)cc1 (relative stereo) [Example 47, HOOCCH2 -D-Phe-cis-Ohi-p-NHCH2 C6 H4 C(NH)NH2.HCl] |  | 12. ng/mL |  |  | 140 ng/mL | 270 ng/mL |
| 0.004 × 10^6 L/mole | 1.0 × 10^6 L/mole | 0.03 × 10^6 L/mole | 0.008 × 10^6 L/mole | 63 × 10^6 L/mole | N=C(N)NCCCCNC(=O)[C@@H]1CCCN1C(=O)[C@@H]1NCC[C@H]2CCCC[C@H]21 [Example 61, N-[4-[(aminoiminomethyl)amino]butyl]-1-[[(4aR,8aR)-decahydro-1(R)-isoquinolinyl]carbonyl]-1-prolinamide trihydrochloride] |  | 45 ng/mL |  |  | 679 ng/mL | 756 ng/mL |
| < 0.001 × 10^6 L/mole | 0.40 × 10^6 L/mole | < 0.001 × 10^6 L/mole | < 0.001 × 10^6 L/mole | 0.60 × 10^6 L/mole | Cl.O=C(O)CN[C@H](CC1CCCCC1)C(=O)N1CCC[C@H]1C(=O)NCC1=CCNCC1 [Example 58, HO2 CCH2 -D-Cha-Pro-4-NHCH2 -3,4-dehydropiperidine.HCl] |  | 710 ng/mL |  |  | 14,300 ng/mL | 11,400 ng/mL |
| 0.84 × 10^6 L/mole | 940. × 10^6 L/mole | 3.4 × 10^6 L/mole | 0.04 × 10^6 L/mole | 400 × 10^6 L/mole | Cl.N=C(N)c1ccc(CNC(=O)[C@@H]2C[C@@H]3CCCC[C@@H]3N2C(=O)[C@@H](CC2CCCCC2)NCC(=O)O)cc1 (relative stereo) [Example 49, HOOCCH2 -D-Cha-cis-Ohi-p-NHCH2 C6 H4 C(NH)NH2.HCl] |  | 5 ng/mL |  |  | 130 ng/mL | 130 ng/mL |
| < 0.001 × 10^6 L/mole | 0.02 × 10^6 L/mole | 0.02 × 10^6 L/mole | < 0.001 × 10^6 L/mole | 0.76 × 10^6 L/mole | N=C(N)c1cccc(CCNC(=O)[C@@H]2CCCN2C(=O)[C@@H]2NCC[C@@H]3CCCC[C@@H]32)c1 [Example 29, 1-Piq-Pro-m-NHCH2 CH2 -C6 H4 C(=NH)NH2.2HCl] |  | 750 ng/mL |  |  | 9,800 ng/mL | 15,800 ng/mL |
| < 0.001 × 10^6 L/mole | 0.02 × 10^6 L/mole | 0.04 × 10^6 L/mole | < 0.001 × 10^6 L/mole | 0.04 × 10^6 L/mole | N=C(N)c1cccc(CCCNC(=O)[C@@H]2CCCN2C(=O)[C@@H]2NCC[C@@H]3CCCC[C@@H]32)c1 [Example 33, 1-Piq-Pro-m-NHCH2 CH2 CH2 -C6 H4 C(=NH)NH2.HCl] |  | 18,900 ng/mL |  |  | 59,300 ng/mL | 70,900 ng/mL |

— patent US5705487A, “Antithrombotic agents” (priority 1995, dated 1998)
